Test results from US20080145313A1, “Compositions and Methods for the Treatment and Prevention of Neoplastic Disorders” (Genesis Research & Development Corporation Limited, priority 2006, published 2008).

What was measured:
A549 cells = experiment: Growth inhibition of siRNA-transfected A549 cells, SYBR Green I DNA content; type: cell-based, human; settings: A549 cells, 10 nM siRNA, DNA content 96 hours after transfection, transporter gene targets
How it was run: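 Growth read-out: cellular DNA quantified with SYBR Green I (485/535 nm) 96 h after transfection, cells frozen, thawed and lysed in PBS/1% Triton X-100, pH 7. Cells (A549, 5×10^3 cells/cm^2) received 10 nM siRNA by RNAiMAX; non-specific siRNA served as control; triplicate wells averaged.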

[1] = test system: target transcript mRNA in A549 cells; experiment: Level of mRNA of target transcript in A549 cells by quantitative RT-PCR (Tables 12 and 13); type: cell-based, human; settings: 24 h post-transfection; for mRNA knockdown of transporter gene target transcript, 0.1 nM: 0.1 nM siRNA; for mRNA knockdown of transporter gene target transcript, 1 nM: 1 nM siRNA
How it was run: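 Target mRNA was measured by SYBR Green quantitative RT-PCR using random-primed cDNA, normalised to HPRT and Lamin. Samples came from A549 cells 24 h post-transfection with 0.1, 1.0 or 10 nM siRNA.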

| Substance | Growth Inhibition in A549 cells by 10 nM siRNA (A549 cells) | mRNA knockdown of transporter gene target transcript, 0.1 nM [1] | mRNA knockdown of transporter gene target transcript, 1 nM [1] |
| --- | --- | --- | --- |
| SEQ ID NO: 4946: siRNA targeting ATP2B4 (PMCA4) (chain 1 AATATCACCAACCACAATCTCAGCC; chain 2 AAUAUCACCAACCACAAUCUCAGCC; chemistry not given here; one strand in two spellings) | − (no growth inhibition) | ++ (70-90% mRNA knockdown) | ++ (70-90% mRNA knockdown) |
| SEQ ID NO: 4947: siRNA targeting ATP2B4 (PMCA4) (chain 1 ATTACGCACAGCCTGATAATCCTGC; chain 2 AUUACGCACAGCCUGAUAAUCCUGC; chemistry not given here; one strand in two spellings) | − (no growth inhibition) | ++ (70-90% mRNA knockdown) | ++ (70-90% mRNA knockdown) |
| SEQ ID NO: 4948: siRNA targeting ATP2B4 (PMCA4) (chain 1 ATCTGAGTCTGGATACGGTTCAGGC; chain 2 AUCUGAGUCUGGAUACGGUUCAGGC; chemistry not given here; one strand in two spellings) | − (no growth inhibition) | − (<50% mRNA knockdown) | ++ (70-90% mRNA knockdown) |
| SEQ ID NO: 4952: siRNA targeting ATP6V1B2 (chain 1 TACAACAGGACCTCTGTCAATGGGT; chain 2 UACAACAGGACCUCUGUCAAUGGGU; chemistry not given here; one strand in two spellings) | − (no growth inhibition) | − (<50% mRNA knockdown) | + (50-70% mRNA knockdown) |
| SEQ ID NO: 4953: siRNA targeting ATP6V1B2 (chain 1 ATGATATCAAGGAAGTCTTCGGCCA; chain 2 AUGAUAUCAAGGAAGUCUUCGGCCA; chemistry not given here; one strand in two spellings) | ++ (inhibits by at least 75%) | − (<50% mRNA knockdown) | + (50-70% mRNA knockdown) |
| SEQ ID NO: 4954: siRNA targeting ATP6V1B2 (chain 1 TTTGGATTTCTTTACCAAACCAGCC; chain 2 UUUGGAUUUCUUUACCAAACCAGCC; chemistry not given here; one strand in two spellings) | − (no growth inhibition) | + (50-70% mRNA knockdown) | + (50-70% mRNA knockdown) |
| SEQ ID NO: 4955: siRNA targeting ATP6V1C1 (chain 1 TTGATTGGATATTTGGCCATGTCCC; chain 2 UUGAUUGGAUAUUUGGCCAUGUCCC; chemistry not given here; one strand in two spellings) | − (no growth inhibition) | + (50-70% mRNA knockdown) | ++ (70-90% mRNA knockdown) |
| SEQ ID NO: 4956: siRNA targeting ATP6V1C1 (chain 1 TAGACTTCTAGTTAGCAAACTTCCT; chain 2 UAGACUUCUAGUUAGCAAACUUCCU; chemistry not given here; one strand in two spellings) | − (no growth inhibition) | ++ (70-90% mRNA knockdown) | ++ (70-90% mRNA knockdown) |
| SEQ ID NO: 4957: siRNA targeting ATP6V1C1 (chain 1 TAGACCTTGGAACTACCATTTCGGC; chain 2 UAGACCUUGGAACUACCAUUUCGGC; chemistry not given here; one strand in two spellings) | − (no growth inhibition) | ++ (70-90% mRNA knockdown) | ++ (70-90% mRNA knockdown) |
| SEQ ID NO: 4958: siRNA targeting ATP6V1E1 (chain 1 AGGAATTGCCTTCTGCACTGCAGCC; chain 2 AGGAAUUGCCUUCUGCACUGCAGCC; chemistry not given here; one strand in two spellings) | − (no growth inhibition) | + (50-70% mRNA knockdown) | – |
| SEQ ID NO: 4959: siRNA targeting ATP6V1E1 (chain 1 TGGTCAATTTGGACATCAACATCGT; chain 2 UGGUCAAUUUGGACAUCAACAUCGU; chemistry not given here; one strand in two spellings) | − (no growth inhibition) | − (<50% mRNA knockdown) | ++ (70-90% mRNA knockdown) |
| SEQ ID NO: 4960: siRNA targeting ATP6V1E1 (chain 1 TGGCATTTGCACCAAACAAGGCTCC; chain 2 UGGCAUUUGCACCAAACAAGGCUCC; chemistry not given here; one strand in two spellings) | − (no growth inhibition) | − (<50% mRNA knockdown) | + (50-70% mRNA knockdown) |
| SEQ ID NO: 4961: siRNA targeting ATP6V1F (chain 1 ATGTCATCCCGGTTTAGAAATTGCC; chain 2 AUGUCAUCCCGGUUUAGAAAUUGCC; chemistry not given here; one strand in two spellings) | − (no growth inhibition) | ++ (70-90% mRNA knockdown) | ++ (70-90% mRNA knockdown) |
| SEQ ID NO: 4962: siRNA targeting ATP6V1F (chain 1 TGGAGTCCTTGGCGGCGTCATATGG; chain 2 UGGAGUCCUUGGCGGCGUCAUAUGG; chemistry not given here; one strand in two spellings) | − (no growth inhibition) | − (<50% mRNA knockdown) | + (50-70% mRNA knockdown) |
| SEQ ID NO: 4963: siRNA targeting ATP6V1F (chain 1 TAGCGCAGGTCTTCGGCAGTGAACA; chain 2 UAGCGCAGGUCUUCGGCAGUGAACA; chemistry not given here; one strand in two spellings) | − (no growth inhibition) | ++ (70-90% mRNA knockdown) | ++ (70-90% mRNA knockdown) |
| SEQ ID NO: 4964: siRNA targeting ATP7A (chain 1 TAACCATCATATATATCATCAGCCC; chain 2 UAACCAUCAUAUAUAUCAUCAGCCC; chemistry not given here; one strand in two spellings) | − (no growth inhibition) | − (<50% mRNA knockdown) | − (<50% mRNA knockdown) |
| SEQ ID NO: 4965: siRNA targeting ATP7A (chain 1 TTATAATGCAGTGTCATCATCTTCC; chain 2 UUAUAAUGCAGUGUCAUCAUCUUCC; chemistry not given here; one strand in two spellings) | − (no growth inhibition) | − (<50% mRNA knockdown) | − (<50% mRNA knockdown) |
| SEQ ID NO: 4966: siRNA targeting ATP7A (chain 1 ATAGCTCCCAATTTGAGGTACTTGG; chain 2 AUAGCUCCCAAUUUGAGGUACUUGG; chemistry not given here; one strand in two spellings) | − (no growth inhibition) | − (<50% mRNA knockdown) | − (<50% mRNA knockdown) |
| SEQ ID NO: 4967: siRNA targeting ATP7B (chain 1 AATTCTGGTTAGCAGAAGATAAAGG; chain 2 AAUUCUGGUUAGCAGAAGAUAAAGG; chemistry not given here; one strand in two spellings) | + (inhibits by at least 50%) | − (<50% mRNA knockdown) | − (<50% mRNA knockdown) |
| SEQ ID NO: 4968: siRNA targeting ATP7B (chain 1 ATATCCCGTGGACCGATAATTTCCG; chain 2 AUAUCCCGUGGACCGAUAAUUUCCG; chemistry not given here; one strand in two spellings) | − (no growth inhibition) | − (<50% mRNA knockdown) | ++ (70-90% mRNA knockdown) |
| SEQ ID NO: 4969: siRNA targeting ATP7B (chain 1 AAGGGAGCCACTTTGCTCTTGATGG; chain 2 AAGGGAGCCACUUUGCUCUUGAUGG; chemistry not given here; one strand in two spellings) | − (no growth inhibition) | − (<50% mRNA knockdown) | ++ (70-90% mRNA knockdown) |
